Columns and labels:
[1] = tested on: hematopoietic cells; assay: VCN determination after 14 days in liquid culture of cells transduced with lentiviral vector; type: cell-based; conditions: 4 μg/mL protamine sulfate in media, 14 days liquid culture
Description: “Vector copy number” or “VCN” refers to the number of copies of vector in a sample divided by the number of cells. Generally the number of copies of vector is determined by quantitative polymerase chain reaction (qPCR) using a probe against the Psi sequence of the integrated provirus, and the number of cells is determined by qPCR using a probe against a human housekeeping gene for which there will be two copies per cell (one per chromosome).
An illustrative protocol for transduction of hematopoietic cells with lentiviral vectors as performed in the examples that follow is provided in FIG. 1, although in various experiments described in the examples, the transduction media included no TE, a single TE, or various combinations of TEs. Pre-stimulation included culturing the cells on plates coated with 2 ug/cm^2 RetroNectin™ (RN). […]
(§1) In another experiment, cells were transduced with either 1×10^7 TU/mL or 1×10^8 TU/mL of lentiviral vector in liquid culture in the presence of PGE2, and assayed for VCN determination after 14 days in liquid culture (FIG. 2B). […] A colony forming units (CFUs) assay was performed with transduced cells (FIG. 3A, CFCs=colony-forming cells), and VCN and percent (%) transduction were analyzed in single colonies (FIGS. 3B and 3C). […]

[2] = tested on: hematopoietic cells; assay: CFC/CFU assay: percent transduction analysed in single colonies; type: cell-based
Description: “Transduction efficiency” refers to the percentage of cells transduced with at least one provirus copy. For example if 1×10^6 cells are exposed to a virus and 0.5×10^6 cells are determined to have a least one copy of a virus in their genome, then the transduction efficiency is 50%. An illustrative method for determining transduction efficiency is flow cytometry.
As used herein, “CFC” refers to colony forming cells. The colony forming cell (CFC) assay is used to study the proliferation and differentiation pattern of hematopoietic progenitors by their ability to form colonies in a semisolid medium. The number and the morphology of the colonies formed by a fixed number of input cells provide preliminary information about the ability of progenitors to differentiate and proliferate. Exemplary assays are provided in Sarma et al. Colony forming cell (CFC) assay for human hematopoietic cells. J Vis Exp. 2010 Dec. 18; (46). […]
as §1

[3] = tested on: CD34+ cells; conditions: ex vivo culture of CD34+ cells; Heffner et al. 2018; cited from earlier work

Compound: CCCCC(C)(C)[C@H](O)/C=C/[C@H]1[C@H](O)CC(=O)[C@@H]1C/C=C\CCCC(=O)O
- transduction efficiency as determined by VCN/cell ([1]; 1×10^7 or 1×10^8 TU/mL lentiviral vector, FIG. 2B): increased transduction efficiency
- transduction efficiency as measured by vector copy numbers/cell ([1]; PGE2 10, 30 or 50 μg/mL, 2.5×10^7 or 5×10^7 TU/mL VSVG-pseudotyped GFP LV, FIG. 2A): increase transduction efficiency
- percent (%) transduction, cells transduced ([2]; highest tested concentration of PGE2, single colonies, FIG. 3C): up to 75%
- percent (%) transduction, cells transduced ([2]; highest tested concentration, Example 2 (poloxamer F108 / LentiBOOST), FIG. 5C): up to 75%
- level of lentiviral transgene delivery [3]: increase the level of lentiviral transgene delivery

Source: patent publication US12685751B2, “Methods for gene modification of hematopoietic cells” (Centro de Investigaciones Energéticas, Medioambientales y …, priority 2018, dated 2026)
